Experimental data taken from publication PMC7226534, “[^18F]FET-βAG-TOCA: The Design, Evaluation and Clinical Translation of a Fluorinated Octreotide” (Cancers, 2020).

Key:
Wistar rats = settings: in vivo, iv
Protocol: While adhering to ALARP principles (As Low As Reasonably Practical), a rat dosimetry study was also conducted to enable initial prediction of human Effective Dose. Wistar rats were dosed with a single intravenous injection of [^18F]FET-βAG-TOCA and monitored up to 7 h. Effective Dose for both sexes were estimated at 0.03 mSv/MBq.

rat (HsdHan:WIST strain) = experiment: GLP single dose intravenous bolus extended acute toxicology study in the rat; format: in vivo; settings: dose levels 0, 0.25 and 1 mg/kg
Protocol: Two key studies were conducted to assure regulators of the safety of [^18F]FET-βAG-TOCA prior to first-in-human testing. A Good Laboratory Practice single dose intravenous bolus extended acute toxicology study in the rat (HsdHan^TM:WIST strain) was conducted with both [^19F]FET-βAG-TOCA and the propanyl-βAG-TOCA precursor. Animals were monitored throughout; day 2 (interim) and day 14 (termination) analysis were conducted. Dose levels of 0, 0.25 and 1 mg/kg of either test articles were tolerated in-life with no mortality. There were no effects on food consumption or body weight. Clinical pathology changes were noted but were not consistently seen in both sexes and were not associated with any pathological changes. A No Observed Adverse Effect Level (NOAEL) for both [^19F]FET-βAG-TOCA and propanyl-βAG-TOCA was considered to be 1.0 mg/kg. This study followed ‘approach 1’ given in the ICH M3 (R2) guideline to assess whether a single 50 μg (up to 100 μg) dose of the test article can be given to humans. The study design permitted a safety margin of 1000× the equivalent human dose to be established.

## [^18F]fluoroethyltriazole-βAG-TOCA [Compound 7]
Wistar rats
  Effective Dose predicted for humans from rat dosimetry: 0.03 mSv/MBq

## [^19F]FET-βAG-TOCA
Rat (HsdHan:WIST strain)
  Effects on food consumption or body weight: no effects
  Tolerability / mortality: no mortality

## propanyl-βAG-TOCA
Rat (HsdHan:WIST strain)
  Effects on food consumption or body weight: no effects
  Tolerability / mortality: no mortality
